The text below walks through data of publication PMC6960228, “Ethoxysanguinarine, a Novel Direct Activator of AMP-Activated Protein Kinase, Induces Autophagy and Exhibits Therapeutic Potential in Breast Cancer Cells” (Frontiers in Pharmacology, 2020).

The test system of experiment [1] is LC3 redistribution to autophagosomes in BC cells. Description: GFP-LC3 autophagy assay (confocal microscopy). Format: cell-based, human. As to conditions: pQCXIP-GFP-LC3 transfected cells, Eth 24 h. The source says: The cells were transfected with pQCXIP-GFP-LC3 plasmid using the Lipofectamine 3000 (Invitrogen; Thermo Fisher Scientific, Inc.) according to the recommended protocol by the manufacturer and then fixed in 4% paraformaldehyde. The percentage of cells with fluorescent dots representing GFP-LC3 translocation was counted. For visualization of cell nucleus, DAPI was used. Sections were observed using an Olympus laser scanning confocal microscope with imaging software (Olympus Fluoview FV-1000, Tokyo, Japan).
Figure 2 Eth induces autophagy in BC cells. (A): MCF-7, MDA-MB-231, or MDA-MB-436 cells were treated with increasing concentrations of Eth for 24 h. Western blot was performed using antibodies indicated. GAPDH was used as the loading control. (B): MCF-7 (MDA-MB-231 or MDA-MB-436) cells were treated with 2.4 µM (2.0 µM or 2.0 µM) Eth for the indicated times, and cell lysates were subjected to western blot assay. (C): MCF-7, MDA-MB-231, or MDA-MB-436 cells transfected with pQCXIP-GFP-LC3 plasmid were treated with increasing concentrations of Eth for 24 h, and assessed by immunoﬂuorescence analyses. Scale bar = 20 µm. (D): MDA-MB-231 or MDA-MB-436 cells transfected with pQCXIP-GFP-LC3 plasmid were treated with Eth (2.0 µM) and/or 3-MA (1 mM) for 24 h, and assessed by immunoﬂuorescence analyses. Scale bar = 20 µm. […] (F): MCF-7, MDA-MB-231, or MDA-MB-436 cells were treated with Eth (3.5 µM, 3.0 µM, or 3.0 µM) and/or 3-MA (1 mM) for 24 h and analyzed by MTT assay. (G): MCF-7, MDA-MB-231, or MDA-MB-436 cells were treated with Eth (2.4 µM, 2.0 µM, or 2.0 µM) and/or 3-MA (1 mM) for 24 h, and western blot was performed using antibodies indicated. *P < 0.05.
Figure 3 Eth induces autophagy through the AMPK/mTORC1 signaling. […] (D): MDA-MB-231 or MDA-MB-436 cells transfected with pQCXIP-GFP-LC3 plasmid were treated with Eth (2.0 µM) and/or CC (25 µM) for 24 h, and assessed by immunoﬂuorescence analyses. […] (G): MDA-MB-231 or MDA-MB-436 cells transfected with pQCXIP-GFP-LC3 plasmid were treated with Eth (1.0 µM or 1.6 µM) and/or Met (10 mM) for 24 h, and assessed by immunoﬂuorescence analyses. […]

The test system of experiment [2] is MCF-7 xenografted and MDA-MB-231 xenografted murine models. Description: Xenograft studies. The experiment is classed as in vivo, nude mice. The method, then: Female nude immunodeficient mice (nu/nu) (weighing ~16 g, 5-week-old) were purchased from Hunan SJA Laboratory Animal Co., Ltd. (Changsha, China), and maintained under specific pathogen-free conditions. Mice were given free access to sterile water and to a standard diet, and maintained under controlled conditions of temperature (22–24°C), humidity (40–70%), and light (12 h light-dark cycles). The present study was approved by Animal Ethics Committee of Hubei University of Medicine. The mice were subcutaneously injected with human BC MDA-MB-231 cells (5 × 10^6 cells which were suspended in 100 μL DMEM) into the right flank of each mouse. Treatments started when tumors reached a palpable size (0.5 cm in diameter). Mice were randomly divided into the following two groups: control group (vehicle; 0.8% DMSO, 12% cremophor, and 8% ethanol in normal saline; n = 8) and Eth-treated group (intraperitoneal injection of […] Eth; n = 8). The mice were treated 5 times per week for a total of […]. Caliper measurements of the longest perpendicular tumor diameters were performed twice a week to estimate the tumor volume, using the following formula: 4π/3 × (width/2)^2 × (length/2), representing the three-dimensional volume of an ellipse. Animals were sacrificed when tumors reached 1.5 cm or if the mice appeared moribund to prevent unnecessary morbidity to the mice.
To determine the anti-tumor effect of Eth on BC in vivo, MCF-7 xenografted and MDA-MB-231 xenografted murine models were generated. Once the tumors grew to a measurable size, each group was administered with vehicle (MCF-7 = 8, MDA-MB-231 = 8) or Eth (MCF-7 = 8; MDA-MB-231 = 8) i.p. at 2 mg/kg four times a week for 4 weeks. The tumor-bearing mice were humanely killed when their tumors reached 1.5 cm in diameter or when paralysis or major compromise in their quality of life occurred. […]
(A–B): Murine models were treated with vehicle, Eth (2 mg/kg) and the tumor volumes were calculated twice a week. **P < 0.01. […] (H–I): The expressions of LC3-II, AMPKα, and pAMPKα in xenograft tumor tissues were analyzed by western blot. […]

In the case of `CCOC1c2c(ccc3c2OCO3)-c2ccc3cc4c(cc3c2N1C)OCO4` (stereo not shown) [Eth, Ethoxysanguinarine], in experiment [1], the GFP-LC3 staining pattern entry is “speckled fluorescent staining pattern”. Besides, in experiment [2] (i.p. 2 mg/kg four times a week for 4 weeks), the tumor weight entry is “significantly reduced the tumor weight”. Also, the “tumor growth compared with vehicle control” value in experiment [2] (i.p. 2 mg/kg four times a week for 4 weeks, P < 0.05) is listed as “efficiently repressed tumor growth”. Also, the “expression levels of pAMPK and LC-3II in tumor specimens” value in experiment [2] (western blot of xenograft tumors) is “upregulated”.
